# ChEMBL document CHEMBL1201862, “PubChem BioAssay data set” (2004)
# Calls of active or inactive are those of the source.
# Legend:
# [1] = growth suppression of beta-catenin-knockout colon cells, dose response, cell-based, HCT116, human colon tumor (AID 1045); type: functional;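 further: HCT116 colon tumor cells with beta catenin knocked out; cells exposed to compound for 60 hours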
# [2] = growth suppression of PTEN-null colon cells, dose response, cell-based, HCT116 PTEN knockout (AID 1047); type: functional;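 further: HCT116 colon tumor cells with PTEN knocked out; cells exposed to compound for 60 hours before readout; potency for loss of cell viability measured by luminescence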
# [3] = target: Eukaryotic translation initiation factor 4E (Mus musculus, UniProt P63073); assay: eIF4E–eIF4G protein interaction inhibitors, dose response, biochemical, TR-FRET (AID 855); type: functional;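 further: potency for disrupting eIF4E binding to eIF4GI seen as loss of FRET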
# [4] = target: FAD-linked sulfhydryl oxidase ALR (Homo sapiens, UniProt P55789); assay: inhibitors of human ALR sulfhydryl oxidase, dose response, biochemical, H2O2 detection, luminescence, cherry-pick (AID 493248)
# [5] = A cytotoxicity screen of small molecule inhibitors of the PhoP region in Salmonella typhi identified in the primary screen. [Related pubchem assays: 1850, 1864, 1985 ]; type: functional
# Cytochrome P450 2D6 = Cytochrome P450 2D6 (Homo sapiens, UniProt P10635);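 further: CYP2D6 member of a cytochrome P450 panel assay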
# Cytochrome P450 2C9 [6] = target: T1, Cytochrome P450 2C9 (Homo sapiens, UniProt P11712)
# Cytochrome P450 3A4 = Cytochrome P450 3A4 (Homo sapiens, UniProt P08684);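 further: CYP3A4 tested as one member of a cytochrome P450 panel screen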
# [7] = target: T2, Ubiquitin-conjugating enzyme E2 N (Homo sapiens, UniProt P61088); type: functional;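 further: Dose-response confirmation in a TR-FRET assay detecting UBC13-driven polyubiquitin chain formation, inhibition measured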
# T2 sequence (P61088 whole entry): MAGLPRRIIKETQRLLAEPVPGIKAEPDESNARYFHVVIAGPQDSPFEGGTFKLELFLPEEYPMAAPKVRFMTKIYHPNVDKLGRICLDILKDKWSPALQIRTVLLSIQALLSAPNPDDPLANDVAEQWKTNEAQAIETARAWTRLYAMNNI
# Nonstructural protein 1 = Nonstructural protein 1 (Influenza A virus, UniProt Q194T2); type: functional, Influenza A virus (A/California/07/2009(H1N1))
# BJ [8] = assay: cytotoxicity toward BJ-TERT fibroblasts, dose response, cell-based, RAS-independent, luminescence (AID 1933); type: functional; conditions: Homo sapiens
# BJ [9] = assay: cells; type: functional, cell-based; conditions: Homo sapiens
# [10] = cytotoxicity toward DRD oncogenic fibroblasts, dose response, cell-based, non-viral oncogenic, luminescence (AID 1934); type: functional; conditions: Homo sapiens
# BJ [11] = assay: cytotoxicity toward Ras-transformed BJeLR fibroblasts, dose response, cell-based, alamar blue fluorescence, cherrypicked samples (AID 2631); type: functional; conditions: Homo sapiens;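 further: confirmatory dose-response assay in RAS-dependent BJ fibroblasts engineered with TERT, LT and ST, with cytotoxicity read by fluorescence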
# [12] = control 3'UTR Renilla luciferase suppression, dose response, counter-screen for Shn3 inhibitor project, cell-based, Clone20-Shn3RL, cherry-picked (AID 624133); type: functional
# [13] = Shn3 3'UTR reporter inhibitors, dose response, cell-based, Clone20 osteoblasts, firefly luciferase, cherry-picked (AID 624132); type: functional;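 further: firefly luciferase luminescence from reporter carrying the Shn3 3'UTR in osteoblasts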
# BJ [14] = assay: cytotoxicity toward BJ-TERT-LT-ST fibroblasts, dose response, cell-based, RAS-independent, luminescence (AID 1935); type: functional; conditions: Homo sapiens;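 further: BJ fibroblasts immortalized with TERT plus LT and ST oncogenes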
# Cytochrome P450 2C19 = Cytochrome P450 2C19 (Homo sapiens, UniProt P33261); assay: Cytochrome panel assay with activity outcomes. Panel member name: p450-cyp2c19 Compounds with AC50 equal or less than 10 uM are considered active; type: functional
# Cytochrome P450 1A2 = target: T3, Cytochrome P450 1A2 (Homo sapiens, UniProt P05177);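 further: PubChem cytochrome P450 panel assay, CYP1A2 panel member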
# T3 sequence (P05177 whole entry): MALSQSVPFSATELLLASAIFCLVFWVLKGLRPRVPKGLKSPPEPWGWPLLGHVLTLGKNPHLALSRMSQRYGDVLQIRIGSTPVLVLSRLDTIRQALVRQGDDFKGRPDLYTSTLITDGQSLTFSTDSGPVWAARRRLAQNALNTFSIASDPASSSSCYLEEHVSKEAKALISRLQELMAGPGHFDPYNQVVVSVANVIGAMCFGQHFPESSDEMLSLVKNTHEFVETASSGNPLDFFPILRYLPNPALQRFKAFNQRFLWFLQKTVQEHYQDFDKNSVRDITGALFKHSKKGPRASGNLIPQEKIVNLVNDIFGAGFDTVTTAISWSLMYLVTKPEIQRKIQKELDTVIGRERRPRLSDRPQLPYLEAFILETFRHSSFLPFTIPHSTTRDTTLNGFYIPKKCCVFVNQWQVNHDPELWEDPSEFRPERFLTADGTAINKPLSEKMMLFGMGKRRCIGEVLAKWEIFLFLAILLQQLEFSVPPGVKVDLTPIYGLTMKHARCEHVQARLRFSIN
# [15] = target: T4, Carboxy-terminal domain RNA polymerase II polypeptide A small phosphatase 1 (Homo sapiens, UniProt Q9GZU7); assay: inhibitors of CTDSP1, concentration-response testing, biochemical assay, absorbance-based, actives from ultra-high-throughput screening (AID 540297); type: functional
# T4 sequence (Q9GZU7 whole entry): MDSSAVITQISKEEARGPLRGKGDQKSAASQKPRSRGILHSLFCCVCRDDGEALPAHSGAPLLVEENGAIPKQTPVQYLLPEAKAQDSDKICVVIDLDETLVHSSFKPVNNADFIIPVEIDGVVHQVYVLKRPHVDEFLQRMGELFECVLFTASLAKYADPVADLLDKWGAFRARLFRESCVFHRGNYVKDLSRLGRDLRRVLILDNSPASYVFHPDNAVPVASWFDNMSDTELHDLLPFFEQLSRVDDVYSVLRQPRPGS
# Cytochrome P450 2C9 [16] = target: T1, Cytochrome P450 2C9; remark: listed apart in the source
# [17] = Luminescence Cell-Based Dose Confirmation HTS to Identify Activators of 5'UTR Stem-Loop Driven Alpha-Synuclein mRNA Translation in H4 Neuroglioblastoma Cells. [Related pubchem assays: 1829 (Project Summary), 1814 (Primary HTS)]; type: functional
# H4 = assay: Luminescence Cell-Based Dose Response HTS to Identify Activators of 5'UTR Stem-Loop Driven Prion Protein mRNA Translation in H4 Neuroglioblastoma Cells. [Related pubchem assays: 1829 (Project Summary), 1814 (Primary HTS)]; type: functional; conditions: Homo sapiens
# [18] = Luminescence Cell-Based Dose Response HTS to Identify Activators of Luciferase Translation or Activity in H4 […] Cells. [Related pubchem assays: 1829 (Project Summary), 1814 (Primary HTS)]; type: functional
# [19] = microbe, parasite or virus in culture; type: functional; conditions: Mycobacterium tuberculosis
# [20] = Luminescence Cell-Based Dose Retest to Confirm Inhibitors of Cancer Stem Cells. [Related pubchem assays (depositor defined):AID2717, AID2721]; type: functional; conditions: Homo sapiens
# Streptokinase A = target: T5, Streptokinase A (Streptococcus pyogenes serotype M1, UniProt P10520); assay: S. pyogenes streptokinase expression inhibitors, potency, dose response, plasminogen activation absorbance, OD405 (AID 1914); type: functional, Streptococcus pyogenes M1 GAS;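 further: secreted streptokinase activity via plasminogen activation per viability signal from cell pellet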
# T5 sequence (P10520 whole entry): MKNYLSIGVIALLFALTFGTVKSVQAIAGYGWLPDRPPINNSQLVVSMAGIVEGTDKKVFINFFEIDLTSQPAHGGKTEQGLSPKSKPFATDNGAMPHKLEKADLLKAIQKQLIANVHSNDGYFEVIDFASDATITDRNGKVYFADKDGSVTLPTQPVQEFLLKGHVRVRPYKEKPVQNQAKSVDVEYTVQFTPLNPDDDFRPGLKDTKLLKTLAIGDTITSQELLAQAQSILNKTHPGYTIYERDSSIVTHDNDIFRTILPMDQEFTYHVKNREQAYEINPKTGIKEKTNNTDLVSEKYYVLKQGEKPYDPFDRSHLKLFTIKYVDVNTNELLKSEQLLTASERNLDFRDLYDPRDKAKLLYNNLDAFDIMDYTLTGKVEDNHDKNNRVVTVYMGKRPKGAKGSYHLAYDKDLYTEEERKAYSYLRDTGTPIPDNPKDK
# [21] = tested on: Streptococcus sp. 'group A'; assay: growth inhibition of control SK(-) GAS strain, dose response, counter-screen for streptokinase expression inhibitor project, luminescence, kanamycin, BacTiterGlo, confirmation (AID 1900); type: functional, organism-based
# Streptococcus = assay: Group A Streptococcus viability loss, dose response, counter-screen for streptokinase expression inhibitor project, luminescence, BacTiterGlo (AID 1915); type: functional, organism-based;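 further: potency for reduction of bacterial viability or growth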
# Chain of FAD-linked sulfhydryl oxidase ALR (P55789 whole entry): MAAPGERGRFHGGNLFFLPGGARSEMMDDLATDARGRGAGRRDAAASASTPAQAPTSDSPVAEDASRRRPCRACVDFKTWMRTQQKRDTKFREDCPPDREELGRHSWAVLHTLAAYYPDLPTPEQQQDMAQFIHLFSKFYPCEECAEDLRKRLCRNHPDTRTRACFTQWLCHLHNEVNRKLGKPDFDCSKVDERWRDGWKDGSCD
# T1 sequence (P11712 whole entry): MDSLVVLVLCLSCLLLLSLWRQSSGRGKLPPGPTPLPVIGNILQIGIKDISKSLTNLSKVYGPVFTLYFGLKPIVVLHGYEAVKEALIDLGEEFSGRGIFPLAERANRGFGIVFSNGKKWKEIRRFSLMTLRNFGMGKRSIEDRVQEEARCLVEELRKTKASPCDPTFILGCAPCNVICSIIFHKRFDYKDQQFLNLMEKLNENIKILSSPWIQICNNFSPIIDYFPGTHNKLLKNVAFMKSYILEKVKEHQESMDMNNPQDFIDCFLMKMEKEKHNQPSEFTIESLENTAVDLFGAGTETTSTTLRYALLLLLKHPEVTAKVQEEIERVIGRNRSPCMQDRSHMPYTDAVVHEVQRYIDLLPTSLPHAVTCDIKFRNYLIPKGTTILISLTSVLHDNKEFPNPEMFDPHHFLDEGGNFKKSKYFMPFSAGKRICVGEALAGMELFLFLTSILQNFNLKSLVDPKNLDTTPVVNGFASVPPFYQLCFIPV
# Chain of Eukaryotic translation initiation factor 4E (P63073 whole entry): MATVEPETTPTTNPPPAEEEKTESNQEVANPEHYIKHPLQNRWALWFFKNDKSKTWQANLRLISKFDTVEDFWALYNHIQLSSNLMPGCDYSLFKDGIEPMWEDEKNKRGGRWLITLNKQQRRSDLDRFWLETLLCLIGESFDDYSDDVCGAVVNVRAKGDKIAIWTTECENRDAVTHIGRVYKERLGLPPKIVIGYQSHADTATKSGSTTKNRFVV
# Chain of Cytochrome P450 2D6 (P10635 whole entry): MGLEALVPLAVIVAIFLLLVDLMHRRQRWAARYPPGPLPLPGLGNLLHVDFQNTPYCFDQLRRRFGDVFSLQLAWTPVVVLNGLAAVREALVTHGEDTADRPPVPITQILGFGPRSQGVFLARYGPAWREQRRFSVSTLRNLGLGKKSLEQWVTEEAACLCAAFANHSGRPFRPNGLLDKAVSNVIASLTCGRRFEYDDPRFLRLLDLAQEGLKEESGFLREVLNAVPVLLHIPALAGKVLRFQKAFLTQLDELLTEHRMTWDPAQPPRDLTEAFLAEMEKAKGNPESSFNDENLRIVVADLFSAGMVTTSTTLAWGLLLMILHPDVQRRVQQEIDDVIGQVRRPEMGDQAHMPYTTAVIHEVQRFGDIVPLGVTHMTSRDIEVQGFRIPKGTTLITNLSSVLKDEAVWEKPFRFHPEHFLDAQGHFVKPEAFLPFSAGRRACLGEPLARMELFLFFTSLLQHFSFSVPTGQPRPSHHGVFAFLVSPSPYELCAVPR
# Chain of Cytochrome P450 3A4 (P08684 whole entry): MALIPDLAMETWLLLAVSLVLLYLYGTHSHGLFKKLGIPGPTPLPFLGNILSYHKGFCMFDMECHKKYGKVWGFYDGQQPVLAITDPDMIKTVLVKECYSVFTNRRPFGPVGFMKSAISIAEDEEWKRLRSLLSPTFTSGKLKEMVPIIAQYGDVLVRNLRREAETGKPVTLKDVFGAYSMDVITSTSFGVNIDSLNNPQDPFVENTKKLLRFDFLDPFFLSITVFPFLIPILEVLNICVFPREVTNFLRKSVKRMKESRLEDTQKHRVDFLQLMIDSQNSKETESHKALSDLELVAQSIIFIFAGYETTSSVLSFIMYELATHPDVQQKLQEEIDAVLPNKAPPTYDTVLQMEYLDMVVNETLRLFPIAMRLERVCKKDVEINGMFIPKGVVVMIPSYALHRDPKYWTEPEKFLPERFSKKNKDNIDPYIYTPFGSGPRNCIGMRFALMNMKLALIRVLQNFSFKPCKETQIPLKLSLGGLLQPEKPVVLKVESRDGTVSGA
# Chain of Cytochrome P450 2C19 (P33261 whole entry): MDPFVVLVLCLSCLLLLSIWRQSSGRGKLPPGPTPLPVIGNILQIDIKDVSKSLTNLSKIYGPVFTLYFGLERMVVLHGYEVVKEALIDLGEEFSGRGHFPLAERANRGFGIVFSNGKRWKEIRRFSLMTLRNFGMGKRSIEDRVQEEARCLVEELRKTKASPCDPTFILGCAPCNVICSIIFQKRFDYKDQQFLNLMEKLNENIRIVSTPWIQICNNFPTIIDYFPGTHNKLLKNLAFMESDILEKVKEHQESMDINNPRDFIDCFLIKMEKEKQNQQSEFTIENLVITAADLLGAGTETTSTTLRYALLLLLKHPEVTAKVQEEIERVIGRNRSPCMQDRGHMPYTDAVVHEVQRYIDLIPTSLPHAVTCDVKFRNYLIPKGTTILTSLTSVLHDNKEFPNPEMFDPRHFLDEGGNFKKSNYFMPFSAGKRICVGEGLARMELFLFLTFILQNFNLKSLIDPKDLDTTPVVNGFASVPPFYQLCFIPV
# Chain of Nonstructural protein 1 (Q194T2 whole entry): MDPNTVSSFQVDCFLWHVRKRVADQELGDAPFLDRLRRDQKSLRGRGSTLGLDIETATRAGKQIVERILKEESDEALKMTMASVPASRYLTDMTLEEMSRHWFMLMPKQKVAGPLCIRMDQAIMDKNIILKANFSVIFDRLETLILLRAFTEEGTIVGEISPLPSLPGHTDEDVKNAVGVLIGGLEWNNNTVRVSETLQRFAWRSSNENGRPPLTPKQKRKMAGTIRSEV
structure (smiles),measurement,setting,value
CCCCCC(=O)Nc1ccc(C(=O)N/N=C/c2ccc([N+](=O)[O-])cc2)cc1,EC50,[1],4.99 µM (active)
same,EC50,[2],3.92 µM (active)
COc1ccc2c(c1)CC[C@@H]1[C@@H]2CC[C@]2(C)C(=O)CC[C@@H]12,IC50,[3],> 64 µM (inactive)
O=C(Nc1cccc(Cl)c1)Nc1nc(-c2ccc(Cl)cc2)cs1,EC50,[1],94.2 µM (active)
same,EC50,[2],28.1 µM (active)
Cc1ccc(-c2nn(-c3ccccc3)cc2CN(Cc2ccccc2)C(=O)CCC(=O)O)o1,AC50,[4],0.471 µM (active)
Fc1ccc(NC(S)=NCc2ccccc2Cl)cc1,EC50,[5],> 50 µM (active)
Cc1ccc(SCc2ccc(C(=O)Nc3cc([N+](=O)[O-])ccc3C)cc2)cc1,AC50,Cytochrome P450 2D6,3.16 µM (inconclusive)
same,AC50,Cytochrome P450 2C9 [6],inconclusive
same,AC50,Cytochrome P450 3A4,8.91 µM (inconclusive)
Clc1ccc(-c2ccc(/C=N/Nc3nncc(-c4ccccc4)n3)o2)cc1,EC50,[1],14.5 µM (active)
same,EC50,[2],16.9 µM (active)
Cc1ncc(CO)c(/C=N/NC(=O)c2cccc(S(=O)(=O)N3CCCC3)c2)c1O,IC50,[7],> 20 µM (inactive)
same,IC50,Nonstructural protein 1,4.73 µM (active)
CCc1nc(SCc2cccnc2)nc(O)c1C,AC50,[4],0.563 µM (active)
Cc1ccc(N2C(=O)c3cccc4c([N+](=O)[O-])ccc(c34)C2=O)c2cccnc12,EC50,BJ [8],2.21 µM (inconclusive)
same,EC50,BJ [9],26.5 µM (inconclusive)
same,EC50,[10],5.37 µM (inconclusive)
same,EC50,BJ [11],0.782 µM (active)
same,AC50,[12],29.5 µM (active)
same,AC50,[13],5.68 µM (active)
same,EC50,BJ [14],3.88 µM (inconclusive)
CC1Cc2ccccc2N1C(=O)C1CCCCN1S(=O)(=O)c1ccccc1 (stereo not given),AC50,Cytochrome P450 2C9 [6],inconclusive
CC1CCCCC1N(C)C1CCN(C(=O)CNC(=O)/C=C/c2cccc(Cl)c2)CC1 (stereo not given),EC50,BJ [8],2.72 µM (active)
same,EC50,BJ [9],2.79 µM (active)
same,EC50,[10],3.46 µM (active)
same,EC50,BJ [11],1.51 µM (active)
same,EC50,BJ [14],2.63 µM (inconclusive)
Cc1cc(C)c2c(c1)-c1cc(C)nn1C(c1cccnc1)N2 (stereo not given),AC50,[4],1.77 µM (active)
C/C(=N\NC(=O)c1cccc(N/N=C(\C)c2ccncc2)c1)c1ccncc1,AC50,[4],0.205 µM (active)
COc1cccc(CNC(=O)Nc2cccs2)c1,AC50,[4],10.4 µM (active)
O=C(CCN1CCOCC1)c1ccccc1,EC50,[1],24.8 µM (active)
same,EC50,[2],31.9 µM (active)
COc1ccc(/C=C/C(=O)Nc2cc(C(F)(F)F)ccc2Cl)cc1,AC50,Cytochrome P450 2C9 [6],inconclusive
same,AC50,Cytochrome P450 3A4,10 µM (inconclusive)
same,AC50,Cytochrome P450 2C19,0.00631 µM (inconclusive)
Cc1ccc(-c2ccc(/C=N\NC(=O)c3cc4c(ccc5ccccc54)o3)o2)cc1[N+](=O)[O-],EC50,[1],6.21 µM (active)
same,EC50,[2],5.36 µM (active)
COc1ccccc1N1CCN(C[C@@H]2CN3C(=O)N(C)c4ccccc4C3=N2)CC1,AC50,Cytochrome P450 2C9 [6],inconclusive
same,AC50,Cytochrome P450 1A2,31.6 µM (inconclusive)
COc1ccc(OC)c(NC(=O)CSc2sc3c(O)cc(=O)[nH]c3c2C#N)c1,IC50,[15],5.22 µM (active)
O=C(NCCN1CCOCC1)c1nn2c(c1Cl)NC(c1ccccc1)CC2C(F)(F)F (stereo not given),AC50,Cytochrome P450 2D6,35.5 µM (inconclusive)
same,AC50,Cytochrome P450 2C9 [16],35.5 µM (inconclusive)
same,IC50,[3],> 64 µM (inactive)
CC(=O)Oc1ccc2c(c1)OC(c1ccccc1)CC21CC(C)(C)NC(=S)N1 (stereo not given),IC50,[3],> 64 µM (inactive)
Cn1nc(C(F)(F)F)c(/C=N/OC(=O)c2ccc(Cl)cc2)c1Cl,AC50,Cytochrome P450 2C9 [6],inconclusive
same,AC50,Cytochrome P450 2C19,10 µM (inconclusive)
COc1cc(OC)cc(C(=O)Nc2ccccc2C(=O)N2CCCC2)c1,AC50,Cytochrome P450 2C9 [6],inconclusive
same,EC50,[17],> 120 µM (not active)
same,AC50,Cytochrome P450 1A2,14.1 µM (inconclusive)
same,EC50,H4,> 120 µM (not active)
same,EC50,[18],> 120 µM (not active)
Cn1cnc(C(=O)N2CCc3ccccc3C2)c1C(=O)N1CCc2ccccc2C1,IC50,[15],4.36 µM (active)
COC(=O)C1=C(C)N(Cc2ccccc2)C(NCc2cccc(Cl)c2)=N[C@H]1c1ccccc1,IC50,[7],> 20 µM (inactive)
same,CC50,[19],18.5 µM (active)
same,AC50,[20],6.12 µM (active)
Cc1ccc2c(c1)C1CN(C)CCC1N2C(=O)/C(C#N)=C/c1ccc2c(c1)OCO2 (stereo not given),IC50,[7],> 20 µM (inactive)
Cc1nnc(SCC(=O)Nc2nsc(-c3ccc(Cl)cc3)n2)s1,IC50,[15],15.2 µM (active)
COC(=O)c1[nH]c2ccc(C)cc2c1NS(=O)(=O)c1ccc(F)cc1,AC50,[4],1.81 µM (active)
CC1(C)C(=O)N(CCN2CCC(C(=O)c3ccc(F)cc3)CC2)c2ccccc21,AC50,Cytochrome P450 2C9 [6],inconclusive
N#Cc1ccccc1S(=O)(=O)N1CCN(C(=O)c2cc3c(s2)CCC3)CC1,IC50,[15],5.88 µM (active)
Cc1ccc2[nH]c(O)c(N=NC(=O)c3ccc(NS(=O)(=O)c4cccs4)cc3)c2c1,IC50,[15],11.5 µM (active)
same,EC50,Streptokinase A,> 150 µM (not active)
same,EC50,[21],0.429 µM (active)
same,EC50,Streptococcus,16.3 µM (active)
